Experimental data taken from patent publication EP1022029A1, “NOOTROPIC AGENT” (priority 1997, dated 1999).

How the values were obtained:
α4β2 receptor = biological target: T1, α4β2 receptor (Rattus norvegicus, UniProt P09483+P12390); experiment: ACh-evoked currents in α4β2 receptors expressed in Xenopus oocytes (two-electrode voltage clamp); assay type: cell-based; conditions: for % of the original amplitude (Ach-evoked current): treatment as labelled, nefiracetam 1 µM, GF109203X 100 nM, peptides co-expressed, Mean ± SD, n = 6 to 8; for normalized response (%): nef(-), n=5
T1 construct: expressed in transfected cells; host or cells: Xenopus oocytes injected with in vitro transcribed mRNA
T1 sequence (P09483 31-630): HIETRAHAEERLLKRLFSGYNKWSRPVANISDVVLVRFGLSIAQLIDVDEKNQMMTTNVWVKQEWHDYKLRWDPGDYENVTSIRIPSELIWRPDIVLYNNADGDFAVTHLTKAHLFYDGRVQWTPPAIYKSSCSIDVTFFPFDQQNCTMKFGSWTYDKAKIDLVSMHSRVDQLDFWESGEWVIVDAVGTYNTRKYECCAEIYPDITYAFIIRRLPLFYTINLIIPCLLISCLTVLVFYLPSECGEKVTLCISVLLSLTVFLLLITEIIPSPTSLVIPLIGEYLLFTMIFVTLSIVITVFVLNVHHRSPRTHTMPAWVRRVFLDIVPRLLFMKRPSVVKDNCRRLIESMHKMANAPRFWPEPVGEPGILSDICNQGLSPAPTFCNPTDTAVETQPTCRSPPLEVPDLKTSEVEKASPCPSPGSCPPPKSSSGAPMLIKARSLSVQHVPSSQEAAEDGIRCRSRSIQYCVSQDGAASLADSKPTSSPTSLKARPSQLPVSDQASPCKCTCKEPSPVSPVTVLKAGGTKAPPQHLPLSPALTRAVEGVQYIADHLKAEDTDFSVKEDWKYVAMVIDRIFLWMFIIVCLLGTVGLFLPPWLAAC
T1 sequence (P12390 25-500): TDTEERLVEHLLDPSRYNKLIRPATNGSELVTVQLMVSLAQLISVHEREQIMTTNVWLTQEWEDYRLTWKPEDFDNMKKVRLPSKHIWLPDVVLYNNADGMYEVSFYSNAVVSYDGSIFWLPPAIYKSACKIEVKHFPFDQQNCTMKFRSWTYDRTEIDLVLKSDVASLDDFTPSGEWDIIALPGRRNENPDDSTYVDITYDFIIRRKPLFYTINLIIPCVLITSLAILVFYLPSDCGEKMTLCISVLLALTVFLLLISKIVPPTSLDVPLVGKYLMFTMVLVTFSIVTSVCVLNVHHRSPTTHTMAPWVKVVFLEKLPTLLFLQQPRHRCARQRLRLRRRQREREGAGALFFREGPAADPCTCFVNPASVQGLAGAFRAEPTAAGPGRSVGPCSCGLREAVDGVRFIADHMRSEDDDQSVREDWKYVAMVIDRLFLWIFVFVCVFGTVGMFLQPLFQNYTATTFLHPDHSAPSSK
Protocol: Two-electrode voltage-clamp technique was used to record expression α4β2 or α7 receptors in oocytes. ACh (100 µM) was applied to a single oocyte in the presence or absence of α-BuTX (50 nM) or MCA (3 µM). The holding voltage was -30 or -60 mV for α4β2-nAChR or α7-nAChR, respectively. Downward directions correspond to inward currents.
(§1) mRNAs for the rat α4β2 receptor and α7 receptor, GLUR1, 2, 3 receptors, and NP152 and NP153 were constructed as described previously. Xenopus oocytes were manually separated from the ovary, and subjected to treatment with collagenase (0.5 mg/ml). Thereafter, the treated oocytes were incubated overnight in Barth's solution (in mM, 88 NaCl, 1 KCl, 2.4 NaHCO3, 0.82 MgSO4, 0.33 […], 0.41 CaCl2, and 7.5 Tris; pH 7.6). The oocytes were injected with the α4β2 or α7 receptor mRNA and incubated at 18°C. In some cases, NP152 and NP153 were co-expressed with the α4β2 and α7 receptors. The injected oocytes were incubated and transferred to a recording chamber 2-7 days after incubation and continuously superfused at room temperature (20-22°C) with a standard frog Ringer's solution [in mM: 115 NaCl, 2 KCl, 1.8 CaCl2, 5 HEPES; pH 7.0]. To remove the effect of endogenous muscarinic ACh receptor, 1 µM atropine was added to the extracellular solution. ACh-evoked currents were recorded by use of two-electrode voltage clamp techniques and an amplifier (GeneClamp-500, Axon Instrument, Inc. USA). The currents were analyzed on a microcomputer by pClamp software (Axon Instrument, Inc.; Version 6). From the results, an assessment was made as to whether nefiracetam actually acts on the nACh receptors.

α7 receptor = biological target: T2, α7 receptor (Rattus norvegicus, UniProt Q05941); experiment: ACh-evoked currents in α7 receptors expressed in Xenopus oocytes (two-electrode voltage clamp); assay type: cell-based; conditions: for % of the original amplitude (Ach-evoked current): treatment as labelled, nefiracetam 1 µM, GF109203X 100 nM, peptides co-expressed, Mean ± SD, n = 6 to 8; for normalized response (%): nef(-), n=5
T2 construct: expressed in transfected cells; host or cells: Xenopus oocytes injected with in vitro transcribed mRNA
T2 sequence (Q05941 23-502): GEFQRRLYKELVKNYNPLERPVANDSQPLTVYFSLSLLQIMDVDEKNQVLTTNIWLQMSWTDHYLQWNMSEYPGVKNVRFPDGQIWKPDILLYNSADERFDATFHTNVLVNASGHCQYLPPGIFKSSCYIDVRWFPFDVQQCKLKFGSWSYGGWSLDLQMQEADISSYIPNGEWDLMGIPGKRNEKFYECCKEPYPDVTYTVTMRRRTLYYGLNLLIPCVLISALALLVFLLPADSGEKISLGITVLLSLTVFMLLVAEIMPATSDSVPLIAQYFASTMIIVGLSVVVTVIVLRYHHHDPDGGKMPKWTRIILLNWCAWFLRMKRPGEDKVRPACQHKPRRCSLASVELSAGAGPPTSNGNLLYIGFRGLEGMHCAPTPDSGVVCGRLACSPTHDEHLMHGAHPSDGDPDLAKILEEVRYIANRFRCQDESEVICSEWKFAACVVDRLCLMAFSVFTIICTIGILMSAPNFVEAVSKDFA
Protocol: Two-electrode voltage-clamp technique was used to record expression α4β2 or α7 receptors in oocytes. […] The holding voltage was -30 or -60 mV for α4β2-nAChR or α7-nAChR, respectively. Downward directions correspond to inward currents.
as §1

[1] = test system: glutamate release from hippocampal slices; assay type: cell-based, guinea pig; conditions: St (ES+) electrical stimulation; nefiracetam 1 µM, tetrodotoxin 0.5 µM, α-bungarotoxin 50 nM, mecamylamine 3 µM
[2] = test system: postsynaptic potentials evoked from the hippocampal CA1 region; experiment: Postsynaptic potentials recorded in the CA1 pyramidal cell layer of rat hippocampal slices; assay type: cell-based; conditions: Rattus norvegicus, APV 100 µM alone, -10 to -1 min before nefiracetam; Time (min) in c0; n=5; read-out: Postsynaptic potential (% of original amplitude)

In the case of `CN[C@@H]1C[C@H]2O[C@@](C)([C@@H]1OC)n1c3ccccc3c3c4c(c5c6ccccc6n2c5c31)C(=O)NC4` [Staurosporine, reference compound], the “% of the original amplitude (Ach-evoked current)” value (shortened to “% of the original amplitude”) (α4β2 receptor) is reported as 90 ± 8% and the “% of the original amplitude” value (α7 receptor) is reported as 101 ± 8%.
For `O=S(=O)(NCCNCC=Cc1ccc(Br)cc1)c1cccc2cnccc12` [H89, N-[2-(p-Bromocinnamylamino)ethyl]-5-isoquinolinesulfonamide · 2HCl, reference compound], the “% of the original amplitude” value (α4β2 receptor) was 98.8 ± 12% and the “% of the original amplitude” value (α7 receptor) was 99.4 ± 5.8%.
For `Nc1nc2c(ncn2[C@@H]2O[C@H](COP(=O)(O)OP(O)(O)=S)[C@@H](O)[C@H]2O)c(=O)[nH]1` [GDPβS, reference compound], the “% of the original amplitude” value (α4β2 receptor) was 96 ± 10% and the “% of the original amplitude” value (α7 receptor) was 100 ± 11%.
For `CC(=O)OCC[N+](C)(C)C` [ACh, reference compound], the “normalized response (%)” value (α4β2 receptor; ACh 0.1 µM) was 0%, the “normalized response (%)” value (α4β2 receptor; ACh 1 µM) was 3% and the “normalized response (%)” value (α4β2 receptor; ACh 10 µM) was 43%. The “normalized response (%)” value (α4β2 receptor; ACh 100 µM) was 75%, the “normalized response (%)” value (α4β2 receptor; ACh 1000 µM) was 100% and the “normalized response (%)” value (α7 receptor; ACh 0.1 µM) was 0%. The “normalized response (%)” value (α7 receptor; ACh 1 µM) was 0.5%, the “normalized response (%)” value (α7 receptor; ACh 10 µM) was 1% and the “normalized response (%)” value (α7 receptor; ACh 100 µM) was 28%. For the same molecule, the “normalized response (%)” value (α7 receptor; ACh 1000 µM) was 100%.
`CNC1(C)C2CCC(C2)C1(C)C` (stereo not drawn) [mecamylamine, reference compound] was tested, and the “effect on ACh-evoked current (Fig. 3)” value (α4β2 receptor; MCA 3 µM, ACh 100 µM, holding voltage -30 mV) was “strongly inhibit” and the “Amount of released glutamate” value [1] was 2.45 ± 0.3 (c) nmol/mg protein/10min.
`N[C@H](CCCP(=O)(O)O)C(=O)O` [APV, D-2-amino-5-phosphonovaleric acid, reference compound] gave an activity at 100 µM [2] of 87 ± 7%.
`CN(C)CCCn1cc(C2=C(c3c[nH]c4ccccc34)C(=O)NC2=O)c2ccccc21` [GF109203X, reference compound] was tested, and the “% of the original amplitude” value (α4β2 receptor) was 79.3 ± 15% and the “% of the original amplitude” value (α7 receptor) was 102.2 ± 9.6%.
